In patent US20220227765A1, “PYRIDO-INDOLE ANALOGUES AS GPX4 INHIBITORS” (Ferro Therapeutics, Inc., priority 2019, published 2022):
Values after ≈ are worked out from the molar mass of the structure shown. Blank lines part the entries; values can stand above or below the compound they belong to.

Columns and labels:
[1] = test system: 786-O; test: Cell proliferation (Alamar Blue) assay, 786-O; type: cell-based, human; settings: Homo sapiens, 786-0, 24 h, Table B-3, 786-O cells
Description: (§1) Cell viability assay was performed to assess the potency of the compounds in human cancer cell lines 786-0 (renal cell carcinoma) and SJSA-1 (osteosarcoma). Additional cell lines, such as pancreatic cancer cell lines (Panc 02.13, BxPC-3, Panc 12, Panc 02.03, Panc 6.03, PSN-1, HPAC, and Capan-1), prostate cancer cell lines (PC-3, DU145, 22Rv1, NCI-H660, BPH1, LNCaP, BM-1604, and MDA PCa 2b), etc., can be tested in a similar method.
(§2) Cells (SJSA-1, 786-0 and A431) were seeded (5000 cells/100 μL/well) in 96-well tissue culture plate and incubated at 37° C./5% CO2 for 16-24 hours. The cells were then treated with compounds (25 μL of 5×). The compound concentrations were 10-0.0005 μM prepared in 3-fold serial dilutions with final DMSO concentration of 1%. The plates were then incubated for 24 h at 37° C./5% CO2 in a moist environment. Then Alamar Blue™ reagent (final concentration 1×-12.5 μL) was added to each well and incubated for 1.5 hours at 37° C./5% CO2. The plates were read on fluorescence reader at 540 nm excitation and 590 nm emission wavelengths. The IC50 values were subsequently determined using a sigmoidal dose-response curve (variable slope) in GraphPad Prism® 5 software. Table A-3, Table B-3 and Table C-3 show cell proliferation data for certain compounds as described herein.

[2] = test system: SJSA-1; test: Cell proliferation (Alamar Blue) assay, SJSA-1; type: cell-based, human; settings: Homo sapiens, SJSA-1, 24 h, Table B-3, head prints SJSB-1, 24 h, read-out: IC50 (μM) SJSB-1
Description: as §1, §2

[3] = test system: A431; test: Cell proliferation (Alamar Blue) assay, A431; type: cell-based, human; settings: Homo sapiens, A-431, 24 h, Table B-3, A431 cells
Description: as §1, §2

[4] = CD-1 Mouse Whole Blood Stability Assay; type: in vitro ADME; settings: Table B-6, incubation at 37° C.
[5] = Mouse plasma protein % unbound (ultracentrifuge method); type: in vitro ADME
[6] = Kinetic solubility (PBS, pH 7.4); type: physicochemical; settings: aqueous buffer, kinetic from dmso stock, Table B-4
[7] = Rat hepatocyte metabolic stability; type: in vitro ADME
[8] = Human hepatocyte metabolic stability; type: in vitro ADME
[9] = Human blood stability; type: in vitro ADME
[10] = Rat IV pharmacokinetics (2 mg/kg); type: in vivo; settings: male, SD, plasma; for clearance: read-out: Rat IV-PK CL
Excerpt: Institutional Animal Ethical Committee (IAEC) of Jubilant Biosys (IAEC/JDC/2019/188R (for Mice) and IAEC/JDC/2019/189R (for Rat) nominated by CPCSEA (Committee for the Purpose of Control and Supervision of Experiments on Animals) approved the mice and rat pharmacokinetic experiments. Male Balb/c mice (˜6-8 weeks old with body weight range of 22-25 g) and male SD rats (6-8 weeks old with body weight range of 200-250 g) were procured from Vivo Biotech, Hyderabad, India. Animals were quarantined in Jubilant Biosys Animal House for a period of 7 days with a 12:12 h light: dark cycles, and prior to the study the animals were stratified as per body weight.
B) Procedure for rat: Intravenous and oral pharmacokinetics study was done at a dose 2 and 10 mg/kg at dose volume of 2 and 10 mL/Kg. Serial blood sampling was done and at each time point (˜200 μL) were collected from retro-orbital plexus at 0.083 (Only for IV), 0.25, 0.5, 1, 2, 4, 8, 10 (only for PO) and 24 h. Blood samples were collected in tubes containing K2.EDTA as anticoagulant and centrifuged for 5 min at 10,000 rpm in a refrigerated centrifuge (Biofuge, Heraeus, Germany) maintained at 4° C. for plasma separation.
Group I (IV) received test compound intravenously by tail vein at 2 mg/Kg in solution formulation prepared using 30% Kolliphore EL in WFI; dose volume: 2 mL/Kg; strength: 1 mg/mL.
Blood concentration-time data of test compound was analyzed by non-compartmental method using Phoenix WinNonlin Version 8.1.

Compound: C#CC(=O)N1[C@@H](CCCC)Cc2c([nH]c3c(F)cc(F)cc23)[C@@H]1c1cncs1 [Compound B-23]
IC50 [1]: 0.507 µM | IC50 [2]: 0.431 µM | IC50 [3]: > 10 µM | CD-1 Mouse Whole Blood Stability % Remaining ([4]; 0 min): 100.0% | CD-1 Mouse Whole Blood Stability % Remaining ([4]; 30 min): 4.0% | CD-1 Mouse Whole Blood Stability % Remaining ([4]; 60 min): 0.5% | Mouse Plasma Protein % Unbound (Ultracentrifuge method, 4 h at 37° C.) ([5]; Table B-6): Not stable

Compound: C#CC(=O)N1[C@@H](CCCC)Cc2c([nH]c3c(F)cc(F)cc23)[C@@H]1C1CCN(C(=O)OC)CC1 [Compound B-28]
IC50 [1]: 0.032 µM | IC50 [2]: 0.06 µM | IC50 [3]: 8.1 µM | CD-1 Mouse Whole Blood Stability % Remaining ([4]; 0 min): 100.0% | CD-1 Mouse Whole Blood Stability % Remaining ([4]; 30 min): 9.6% | CD-1 Mouse Whole Blood Stability % Remaining ([4]; 60 min): 2.1%

Compound: C#CC(=O)N1[C@@H](CCCC)Cc2c([nH]c3c(F)cc(F)cc23)[C@@H]1C1CCNCC1.Cl [Compound B-26]
IC50 [1]: 0.177 µM | IC50 [2]: 0.08 µM | IC50 [3]: 7.5 µM | CD-1 Mouse Whole Blood Stability % Remaining ([4]; 0 min): 100.0% | CD-1 Mouse Whole Blood Stability % Remaining ([4]; 30 min): 44.7% | CD-1 Mouse Whole Blood Stability % Remaining ([4]; 60 min): 26.7% | fraction unbound at 4 h ([5]; mouse, plasma, Table B-6, 4 h at 37° C.): 0.061

Compound: C#CC(=O)N1[C@@H](CCCC)Cc2c([nH]c3c(F)cc(F)cc23)[C@@H]1c1ccc(C#N)nc1 [Compound B-51]
IC50 [1]: 0.07 µM | IC50 [2]: 0.01 µM | IC50 [3]: 1.1 µM | CD-1 Mouse Whole Blood Stability % Remaining ([4]; 0 min): 100% | CD-1 Mouse Whole Blood Stability % Remaining ([4]; 30 min): 0% | CD-1 Mouse Whole Blood Stability % Remaining ([4]; 60 min): 0%

Compound: C#CC(=O)N1[C@@H](CCCC)Cc2c([nH]c3c(F)cc(F)cc23)[C@@H]1c1ccc(-c2nnn[nH]2)cc1 [Compound B-50]
CD-1 Mouse Whole Blood Stability % Remaining ([4]; 0 min): 100% | CD-1 Mouse Whole Blood Stability % Remaining ([4]; 30 min): 22.3% | CD-1 Mouse Whole Blood Stability % Remaining ([4]; 60 min): 10.5%

More lines, in order of falling IC50 [1], values ahead:

IC50 [1]: 0.009 µM | IC50 [2]: 0.018 µM | IC50 [3]: 4.7 µM | solubility kinetic [6]: 4 µM (≈ 1.83 µg/mL) | human blood stability % remaining ([9]; 15 min): 90%_15 | human blood stability % remaining ([9]; 30 min): 55%_30 | human blood stability % remaining ([9]; 45 min): 36%_45 | human blood stability % remaining ([9]; 60 min): 22%_60 | human blood stability % remaining ([9]; 120 min): 1.5%_120 | clearance [10]: 348 mL/min/kg
Compound: C#CC(=O)N1[C@@H](CCCC)Cc2c([nH]c3ccccc23)[C@@H]1c1ccc(C(=O)NCCOC)cc1 [Compound B-3, 4-((1S,3S)-3-butyl-2-propioloyl-2,3,4,9-tetrahydro-1H-pyrido[3,4-b]indol-1-yl)-N-(2-methoxyethyl)benzamide]

IC50 [1]: 0.002 µM | IC50 [2]: 0.002 µM | solubility kinetic [6]: 1 µM (≈ 0.455 µg/mL) | rat hepatocytes extr. Ratio [7]: 0.9 | human hepatocytes extr. Ratio [8]: 0.82 | human blood stability % remaining ([9]; 15 min): 36%_15 | human blood stability % remaining ([9]; 30 min): 41%_30 | human blood stability % remaining ([9]; 45 min): 11%_45 | human blood stability % remaining ([9]; 60 min): 9%_60 | human blood stability % remaining ([9]; 120 min): 0%_120
Compound: C#CC(=O)N1[C@@H](CCCC)Cc2c([nH]c3ccccc23)[C@@H]1c1ccc(C(=O)NC2CCC2)nc1 [Compound B-5, 5-((1S,3S)-3-butyl-2-propioloyl-2,3,4,9-tetrahydro-1H-pyrido[3,4-b]indol-1-yl)-N-cyclobutylpicolinamide]

IC50 [1]: 0.001 µM | IC50 [2]: 0.001 µM | IC50 [3]: 6.7 µM | solubility kinetic [6]: < 1 µM | rat hepatocytes extr. Ratio [7]: 0.7 | rat hepatocytes % met @ 180 min ([7]; 180 min): 72% | half-life ([7]; rat hepatocytes, read-out: rat hepatocytes T1/2): 1.78 h | hepatocyte CLint ([7]; rat hepatocytes, read-out: rat hepatocytes h Clintr (μL/min/10^6 cells)): 26 µL/min/1e6 cells | human hepatocytes extr. Ratio [8]: 0.13 | human hepatocytes % met @ 180 min ([8]; 180 min): 3.5% | half-life ([8]; human hepatocytes, read-out: human hepatocytes T1/2): 41.1 h | hepatocyte CLint ([8]; human hepatocytes, read-out: human hepatocytes h Clintr (μL/min/10^6 cells)): 1.1 µL/min/1e6 cells | human blood stability % remaining ([9]; 15 min): ~100%_15 | human blood stability % remaining ([9]; 30 min): 96%_30 | human blood stability % remaining ([9]; 45 min): 82%_45 | human blood stability % remaining ([9]; 60 min): 77%_60 | human blood stability % remaining ([9]; 120 min): 51%_120 | AUC(0-t) ([10]; read-out: Rat IV-PK AUC (0-t)): 431 ng·h/mL | clearance [10]: 87 mL/min/kg | half-life ([10]; read-out: Rat IV-PK T1/2): 0.5 h | Vd ([10]; read-out: Rat IV-PK Vd): 3.5 L/kg
Compound: O=C(CCl)N1[C@@H](CC2CC2)Cc2c([nH]c3ccccc23)[C@@H]1c1ccc(NC23CC4CC(CC(C4)C2)C3)cc1 [Compound B-36]
